The values below come from patent US4496584A, “Amidine derivatives with anti-complement activity” (Torii & Co. Ltd., priority 1981, dated 1985).

The target in one assay is T1, trypsin (Bos taurus, UniProt P00760).
T1 sequence (P00760 24-246): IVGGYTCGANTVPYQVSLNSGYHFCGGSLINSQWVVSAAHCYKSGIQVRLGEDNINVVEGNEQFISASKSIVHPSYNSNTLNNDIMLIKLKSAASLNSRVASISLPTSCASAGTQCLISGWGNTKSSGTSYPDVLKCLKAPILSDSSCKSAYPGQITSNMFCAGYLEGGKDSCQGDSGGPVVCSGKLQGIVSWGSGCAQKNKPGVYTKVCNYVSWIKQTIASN
Put plainly: Enzyme inhibition, TAME hydrolysis, trypsin (method of Muramatsu et al.). As to conditions: hydrolysis of TAME; read-out: ID50, trypsin. The class given is biochemical. On the procedure: (§1) The enzyme inhibitory activity was determined according to the method of Muramatsu et al. [M. Muramatsu, T. Onishi, S. Makino, Y. Hayashi and S. Fujii, J. Biochem., 58, 214 (1965)]. The data summarized in Table 1 are expressed in terms of molar concentration (ID50) of the test compound which inhibits 50% of the activity of each enzyme to hydrolyze TAME (tosylarginine methyl ester).

For the next assay, the target named is plasmin (Homo sapiens, UniProt P00747). As to the kind of experiment: Enzyme inhibition, TAME hydrolysis, plasmin (method of Muramatsu et al.). The note with it: read-out: ID50, plasmin. The class given is biochemical. As to the method:
as §1

A further assay addresses kallikrein. As to the kind of experiment: Enzyme inhibition, TAME hydrolysis, kallikrein (method of Muramatsu et al.). The class given is biochemical. The note with it: read-out: ID50, kallikrein. On the procedure:
as §1

The target in another assay is thrombin (Bos taurus, UniProt P00735). Put plainly: Enzyme inhibition, TAME hydrolysis, thrombin (method of Muramatsu et al.). The format is biochemical. As to the method: as §1
In another assay the target is T2, Clr (Homo sapiens, UniProt P00736).
T2 sequence (P00736 464-705 limits assumed): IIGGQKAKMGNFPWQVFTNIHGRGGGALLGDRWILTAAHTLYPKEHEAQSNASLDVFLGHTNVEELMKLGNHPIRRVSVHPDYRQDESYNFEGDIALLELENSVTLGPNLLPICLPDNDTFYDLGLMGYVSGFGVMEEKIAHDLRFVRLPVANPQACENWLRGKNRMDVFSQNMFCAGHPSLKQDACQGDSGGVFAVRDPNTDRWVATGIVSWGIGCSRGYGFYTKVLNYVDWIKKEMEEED
T2 sequence (P00736 18-463 partner limits assumed): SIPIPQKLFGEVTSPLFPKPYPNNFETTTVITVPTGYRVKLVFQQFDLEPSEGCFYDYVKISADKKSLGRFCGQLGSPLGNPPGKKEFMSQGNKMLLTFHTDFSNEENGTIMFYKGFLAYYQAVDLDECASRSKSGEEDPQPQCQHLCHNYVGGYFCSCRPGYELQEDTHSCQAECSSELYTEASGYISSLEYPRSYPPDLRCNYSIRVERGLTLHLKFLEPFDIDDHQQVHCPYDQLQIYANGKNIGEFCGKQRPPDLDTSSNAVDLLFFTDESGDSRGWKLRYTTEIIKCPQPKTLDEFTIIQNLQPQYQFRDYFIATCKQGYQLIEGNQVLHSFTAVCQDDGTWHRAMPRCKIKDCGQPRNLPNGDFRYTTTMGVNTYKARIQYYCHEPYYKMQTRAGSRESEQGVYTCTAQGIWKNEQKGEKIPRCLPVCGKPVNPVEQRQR
Put plainly: Anti-Cl esterase activity, Clr (AAME hydrolysis, method of Okamura et al.). The class given is biochemical. As to conditions: read-out: Anti-C1 activity, Clr (ID50). On the procedure:
(§2) The anti-Cl esterase (Clr, Cls) activity was determined according to the method of Okamura et al. [K. Okamura, M. Muramatsu and S. Fujii, Biochem. Biophys. Acta, 295, 252-257 (1973)]. The inhibition of complement mediated hemolysis (percent) was determined according to the method of Baker et al. [B. R. Baker and E. H. Erickson, J. Med. Chem., 12, 408-414 (1969)]. The figures in Table 2 have the following meanings:
Clr: Molar concentration of the test compound which inhibits 50% of the ability of Clr to hydrolyse AAME (acetylarginin methyl ester) (ID50).

The target of another assay is T3, Cls (Homo sapiens, UniProt P09871).
T3 sequence (P09871 438-688 limits assumed): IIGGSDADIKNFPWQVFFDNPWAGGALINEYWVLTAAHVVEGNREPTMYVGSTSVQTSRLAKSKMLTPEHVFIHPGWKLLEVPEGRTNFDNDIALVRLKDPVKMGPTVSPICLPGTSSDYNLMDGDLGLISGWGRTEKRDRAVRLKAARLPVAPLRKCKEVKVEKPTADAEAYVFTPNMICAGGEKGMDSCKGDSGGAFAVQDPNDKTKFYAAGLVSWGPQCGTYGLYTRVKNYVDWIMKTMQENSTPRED
T3 sequence (P09871 16-437 partner limits assumed): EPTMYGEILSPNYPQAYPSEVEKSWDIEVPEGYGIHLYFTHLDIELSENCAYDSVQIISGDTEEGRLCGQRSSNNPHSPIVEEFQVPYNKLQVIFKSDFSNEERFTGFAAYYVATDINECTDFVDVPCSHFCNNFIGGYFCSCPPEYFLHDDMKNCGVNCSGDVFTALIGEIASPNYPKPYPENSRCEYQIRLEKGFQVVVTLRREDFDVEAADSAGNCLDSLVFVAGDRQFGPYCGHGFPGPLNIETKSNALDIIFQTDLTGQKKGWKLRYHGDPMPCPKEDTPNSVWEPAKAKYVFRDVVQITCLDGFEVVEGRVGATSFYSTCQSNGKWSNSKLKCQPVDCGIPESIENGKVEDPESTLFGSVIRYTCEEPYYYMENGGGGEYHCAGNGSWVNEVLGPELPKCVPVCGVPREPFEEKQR
As to the kind of experiment: Anti-Cl esterase activity, Cls (ATEE hydrolysis, method of Okamura et al.). The class given is biochemical. As to conditions: read-out: Anti-C1 activity, Cls (ID50). On the procedure:
as §2
Cls: Molar concentration of the test compound which inhibits 50% of the ability of Cls to hydrolyse ATEE (acetyltyrosin ethyl ester) (ID50).

Assay [1] deals with complement mediated hemolysis. As to the kind of experiment: Inhibition of complement mediated hemolysis (method of Baker et al.). The format is cell-based.

Sequence of plasmin (P00747 581-810 limits assumed): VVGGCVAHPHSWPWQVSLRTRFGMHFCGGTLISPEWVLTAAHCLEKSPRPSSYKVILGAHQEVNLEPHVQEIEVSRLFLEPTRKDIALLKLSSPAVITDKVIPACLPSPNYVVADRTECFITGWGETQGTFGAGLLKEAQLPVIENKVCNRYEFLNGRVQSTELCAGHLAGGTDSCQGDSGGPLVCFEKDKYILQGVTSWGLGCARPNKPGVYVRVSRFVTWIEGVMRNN
Sequence of plasmin (P00747 97-580 partner limits assumed): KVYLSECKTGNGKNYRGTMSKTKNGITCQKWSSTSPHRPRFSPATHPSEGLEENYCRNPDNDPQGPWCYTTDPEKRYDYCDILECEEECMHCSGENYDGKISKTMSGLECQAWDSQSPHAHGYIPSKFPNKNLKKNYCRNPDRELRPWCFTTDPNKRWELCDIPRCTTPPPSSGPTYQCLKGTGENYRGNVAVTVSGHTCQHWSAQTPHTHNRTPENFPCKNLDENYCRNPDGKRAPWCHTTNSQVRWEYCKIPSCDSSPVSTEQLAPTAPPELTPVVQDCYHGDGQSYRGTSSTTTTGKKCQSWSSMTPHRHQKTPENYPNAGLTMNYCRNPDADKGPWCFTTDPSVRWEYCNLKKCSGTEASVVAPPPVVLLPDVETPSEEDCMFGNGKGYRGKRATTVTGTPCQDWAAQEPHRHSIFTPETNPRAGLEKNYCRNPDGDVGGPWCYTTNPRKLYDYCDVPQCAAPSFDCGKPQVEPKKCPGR

As to `CC(C)CC(=O)Oc1ccc2cc(C(=N)N)ccc2c1` [Compound No. 3, 6-amidino-2-naphthyl isovalerate], the IC50 at trypsin was found to be 30 µM; at plasmin, 30 µM; at kallikrein it was 500 µM; against thrombin, 80 µM; at Clr, 2 µM; at Cls, 2 µM. For the same compound, the “Inhibition of complement mediated hemolysis (%)” value (“Inhibition … (%)” below) is 95% in assay [1] (concentration 1 × 10^-4), 37% in assay [1] (concentration 1 × 10^-5), 0% in assay [1] (concentration 1 × 10^-6) and 0% in assay [1] (concentration 1 × 10^-7).
Consider `CCCCCCCCCC(=O)Oc1ccc2cc(C(=N)N)ccc2c1` [Compound No. 5, 6-amidino-2-naphthyl caprate], for which the results for the IC50 on trypsin, at plasmin and on kallikrein were 6 µM, 10 µM and 100 µM, respectively. For the same compound, the inhibition (as a rule, the share of the control response that was lost under treatment) at 10 µM on thrombin (1×10^-5 M, hydrolysis of TAME, read-out: percentage inhibition, thrombin (figure in parentheses)) worked out at 26%.
In the case of `CCCCCCCCCCCC(=O)Oc1ccc2cc(C(=N)N)ccc2c1` [Compound No. 6, 6-amidino-2-naphthyl laurate], the “Inhibition … (%)” value in assay [1] (concentration 1 × 10^-4) turned out to be 13%; in assay [1] (concentration 1 × 10^-5), 13%; in assay [1] (concentration 1 × 10^-6), 27%; in assay [1] (concentration 1 × 10^-7), 15%.
With `C/C=C/C=C/C(=O)Oc1ccc2cc(C(=N)N)ccc2c1` [Compound No. 9, 6-amidino-2-naphthyl sorbate], the “Inhibition … (%)” value in assay [1] (concentration 1 × 10^-4) worked out at 94%; in assay [1] (concentration 1 × 10^-5), 89%; in assay [1] (concentration 1 × 10^-6), 37%; in assay [1] (concentration 1 × 10^-7), 14%.
Regarding `N=C(N)c1ccc2cc(OC(=O)C3CC3)ccc2c1` [Compound No. 10, 6-amidino-2-naphthyl cyclopropanecarboxylate], the IC50 on trypsin stood at 2 µM; at plasmin it was 4 µM; on kallikrein, 100 µM; at thrombin, 3 µM; on Clr, 0.2 µM; on Cls, 0.3 µM. For the same compound, the “Inhibition … (%)” value in assay [1] (concentration 1 × 10^-4) was determined as 100%; in assay [1] (concentration 1 × 10^-5) it was 92%; in assay [1] (concentration 1 × 10^-6), 18%; in assay [1] (concentration 1 × 10^-7) it was 0%.
With `N=C(N)c1ccc2cc(OC(=O)C3CCCCC3)ccc2c1` [Compound No. 12, 6-amidino-2-naphthylcyclohexanecarboxylate], the IC50 on trypsin was 20 µM; on plasmin, 10 µM; at kallikrein, more than 10 µM; on thrombin, 40 µM; at Clr, 2 µM; at Cls, 3 µM. Also, the “Inhibition … (%)” value was 45% in assay [1] (concentration 1 × 10^-4), 10% in assay [1] (concentration 1 × 10^-5), 11% in assay [1] (concentration 1 × 10^-6) and 0% in assay [1] (concentration 1 × 10^-7).
In the case of `N=C(N)c1ccc2cc(OC(=O)CC3C=CCC3)ccc2c1` (centres unmarked) [Compound No. 13, 6-amidino-2-naphthyl 2-cyclopenteneacetate], the “Inhibition … (%)” value in assay [1] (concentration 1 × 10^-4) was 39%; in assay [1] (concentration 1 × 10^-5) it was 21%; in assay [1] (concentration 1 × 10^-6), 10%; in assay [1] (concentration 1 × 10^-7) it was 10%.
As for `N=C(N)c1ccc2cc(OC(=O)CCCC3CCCCC3)ccc2c1` [Compound No. 15, 6-amidino-2-naphthyl 4-cyclohexylbutyrate], the IC50 on kallikrein and on thrombin was more than 10 µM each time.
For `N=C(N)c1ccc2cc(OC(=O)CCCCCNC(=O)OCc3ccccc3)ccc2c1` [Compound No. 16, 6-amidino-2-naphthyl ε-benzyloxycarbonylaminocaproate], the IC50 amounted to 10 µM on trypsin; 3 µM at plasmin; 40 µM on kallikrein; 100 µM on thrombin; 4 µM at Clr; 4 µM at Cls. The “Inhibition … (%)” value in assay [1] (concentration 1 × 10^-4) came to 92%; in assay [1] (concentration 1 × 10^-5) it was 15%; in assay [1] (concentration 1 × 10^-6) it was 0%; in assay [1] (concentration 1 × 10^-7), 0%.
As for `N=C(N)c1ccc2cc(OC(=O)CCCCCN)ccc2c1` [Compound No. 17, 6-amidino-2-naphthyl ε-aminocaproate], the IC50 at trypsin amounted to 200 µM; on plasmin, 40 µM; on kallikrein it was 50 µM; at thrombin it was 600 µM.
For the compound `N=C(N)NCCCCCC(=O)Oc1ccc2cc(C(=N)N)ccc2c1` [Compound No. 18, 6-amidino-2-naphthyl ε-guanidinocaproate], the IC50 at trypsin was 10 µM; on plasmin, 30 µM; at kallikrein, more than 10 µM; against thrombin, 40 µM; at Clr, 70 µM; at Cls it was 9 µM. Besides, the “Inhibition … (%)” value in assay [1] (concentration 1 × 10^-4) stood at 92%; in assay [1] (concentration 1 × 10^-5) it was 30%; in assay [1] (concentration 1 × 10^-6), 3%; in assay [1] (concentration 1 × 10^-7), 0%.
For the compound `CCCCCC(=O)Oc1ccc2cc(C(=N)N)ccc2c1` [compound 4, 6-amidino-2-naphthyl caproate], the IC50 at trypsin came out at 20 µM; at plasmin it was 20 µM; at kallikrein, 300 µM; on thrombin, 3000 µM; on Clr, 5 µM; on Cls, 4 µM. In addition, the “Inhibition … (%)” value in assay [1] (concentration 1 × 10^-4) is reported as 83%; in assay [1] (concentration 1 × 10^-5) it was 12%; in assay [1] (concentration 1 × 10^-6), 5%; in assay [1] (concentration 1 × 10^-7) it was 0%.
Turning to `N=C(N)c1ccc2cc(OC(=O)[C@H]3CC[C@H](CNC(=O)OCc4ccccc4)CC3)ccc2c1` [compound 19, 6-amidino-2-naphtyl trans-4-benzyloxycarbonylaminomethylcyclohexanecarboxylate], the IC50 is 1 µM at trypsin; 0.8 µM at plasmin; 6 µM at kallikrein; 30 µM against thrombin; 0.4 µM on Clr; 0.4 µM on Cls. Besides, the “Inhibition … (%)” value in assay [1] (concentration 1 × 10^-4) is recorded as 55%; in assay [1] (concentration 1 × 10^-5) it was 88%; in assay [1] (concentration 1 × 10^-6), 25%; in assay [1] (concentration 1 × 10^-7), 6%.
